Assay results from publication PMC10746112, “Synthesis and Pro-Apoptotic Effects of Nitrovinylanthracenes and Related Compounds in Chronic Lymphocytic Leukaemia (CLL) and Burkitt’s Lymphoma (BL)” (Molecules, 2023).

What was measured:
DG-75 BL cells = assay: Annexin V/PI apoptotic assay (FACS); type: cell-based; conditions: 10 µM, 48 h, total (early + late) apoptosis
Procedure: (§1) The chemotherapeutic drug taxol was used as a positive control. The pro-apoptotic effects of the selected nitrostyrene compounds 11g, 11h, 11i, 11j, 11k and 11l (10 μM) were determined using FITC (fluorescein isothiocyanate), Annexin V/PI (propidium iodide) staining and FACS (fluorescence-activated cell sorting) analysis to characterise the mode of cellular death induced by the synthesised compounds. Four populations were produced in this assay: Annexin-V- and PI-negative (Q4, healthy cells), Annexin-V-positive and PI-negative (Q3, early apoptosis), Annexin-V- and PI-positive (Q2, late apoptosis) and Annexin-V-negative and PI-positive (Q1, necrosis), which were easily identified and quantified. Apoptosis was assessed as % total apoptosis by a combination of early and late apoptosis (Q3 and Q2, respectively). […] The identification of compounds that can induce apoptosis in cancer cells is required in the development of potential lead structures for anticancer drugs.
(§2) The BL cells DG-75 and MUTU-I (750,000) were treated at 37 °C with either vehicle (0.1% (v/v) EtOH), […] taxol (10 μM) and incubated for 24 h (MUTU-1) or 48 h (DG-75). The CLL cells PGA1 and HG3 (1 × 10^6 cells/mL) were treated at 37 °C with either vehicle (1% (v/v) DMSO) or the nitrostyrene compounds 19a (10 μM, 5 μM and 1 μM) and 19g, 19i, 19l and 19m (10 μM and 1 μM) for 48 h. The cells were then harvested by centrifugation at 400× g in a temperature-controlled Sorvall centrifuge and rinsed with 0.5 mL of Ca^2+ Annexin-V-binding buffer (0.1 M HEPES, pH 7.4; 0.14 M NaCl; 25 mM CaCl2). The samples were resuspended in 50 µL FITC Annexin V (diluted 1:33 in Ca^2+ Annexin V-binding buffer), incubated on ice for 10 min (protected from light), washed with Annexin-V-binding buffer and re-suspended in 500 µL of propidium iodide (PI) solution (0.5 µg/mL). The samples were analysed within 1 h using a BD Accuri C6 flow cytometer counting 10,000 cells and analysed using the FlowJo software (FlowJo LLC, Ashland, OR, USA) package.

MUTU-I BL cells = assay: Annexin V/PI apoptotic assay (FACS); type: cell-based; conditions: 10 µM, 24 h, total (early + late) apoptosis
Procedure: as §1, §2

MUTU-1 cells = test system: MUTU-1 cells; set-up: method as in earlier work; conditions: nitrostyrenes and taxol, MTT assay, reported data; cited from earlier work
DG-75 cells = test system: DG-75 cells; set-up: method as in earlier work; conditions: nitrostyrenes and taxol, MTT assay, reported data; cited from earlier work
[1] = test system: MUTU-I Burkitt’s lymphoma cell line; conditions: nitrostyrenes, 24 h, cited from earlier work
[2] = test system: DG-75 Burkitt’s lymphoma cell line; conditions: nitrostyrenes, 1 µM, 48 h; cited from earlier work
[3] = test system: HeLa cervical cancer cells; assay: alamarBlue cell viability assay; conditions: Homo sapiens, 24 h
[4] = test system: MCF-7 human breast cancer cells; assay: alamarBlue cell viability assay; conditions: MCF7, 72 h
[5] = test system: HL-60 promyelocytic leukaemia cells; assay: alamarBlue cell viability assay; conditions: Homo sapiens, HL-60, 24 h

For `C/C(=C\c1cccc(Cl)c1)[N+](=O)[O-]` [Compound 11h], the “DG-75 Apoptosis (%)” value (DG-75 BL cells) is listed as 92.0%, the “MUTU-I Apoptosis (%)” value (MUTU-I BL cells) is listed as 82.6% and the IC50 (MUTU-1 cells) is listed as 880 nM. For the same compound, the IC50 (DG-75 cells) was 2250 nM, the “% Viable Cells Remaining MUTU-1 24 h 1 µM” value ([1]; 1 µM) was 39.80% and the “% Viable Cells Remaining MUTU-1 24 h 10 µM” value ([1]; 10 µM) was 10.28%. The “% Viable Cells Remaining DG-75 48 h 1 µM” value [2] was 84.50%, the viability at 1 µM ([3]; read-out: % Viable Cells Remaining HeLa 24 h 1 µM) was 90.6% and the viability at 10 µM ([3]; read-out: % Viable Cells Remaining HeLa 24 h 10 µM) was 23.2%. The viability at 1 µM ([4]; read-out: % Viable Cells Remaining MCF-7 72 h 1 µM) was 94.3%, the viability at 10 µM ([4]; read-out: % Viable Cells Remaining MCF-7 72 h 10 µM) was 29.7% and the viability at 1 µM ([5]; read-out: % Viable Cells Remaining HL60 24 h 1 µM) was 78.2%. It also gave a viability at 10 µM ([5]; read-out: % Viable Cells Remaining HL60 24 h 10 µM) of 6.8%.
